From ChEMBL document CHEMBL4376804, “Review of Transient Receptor Potential Canonical (TRPC5) Channel Modulators and Diseases” (J Med Chem, 2019)

Columns and labels:
[1] = target: T1, Short transient receptor potential channel 3 (Homo sapiens, UniProt Q13507); assay: Inhibition of YFP-tagged TRPC3 (unknown origin) expressed in HEK293 cells assessed as reduction carbhocol-induced receptor operated Calcium influx after 5 mins by fura-2-AM dye based assay; type: cell-based
T1 sequence (Q13507 whole entry): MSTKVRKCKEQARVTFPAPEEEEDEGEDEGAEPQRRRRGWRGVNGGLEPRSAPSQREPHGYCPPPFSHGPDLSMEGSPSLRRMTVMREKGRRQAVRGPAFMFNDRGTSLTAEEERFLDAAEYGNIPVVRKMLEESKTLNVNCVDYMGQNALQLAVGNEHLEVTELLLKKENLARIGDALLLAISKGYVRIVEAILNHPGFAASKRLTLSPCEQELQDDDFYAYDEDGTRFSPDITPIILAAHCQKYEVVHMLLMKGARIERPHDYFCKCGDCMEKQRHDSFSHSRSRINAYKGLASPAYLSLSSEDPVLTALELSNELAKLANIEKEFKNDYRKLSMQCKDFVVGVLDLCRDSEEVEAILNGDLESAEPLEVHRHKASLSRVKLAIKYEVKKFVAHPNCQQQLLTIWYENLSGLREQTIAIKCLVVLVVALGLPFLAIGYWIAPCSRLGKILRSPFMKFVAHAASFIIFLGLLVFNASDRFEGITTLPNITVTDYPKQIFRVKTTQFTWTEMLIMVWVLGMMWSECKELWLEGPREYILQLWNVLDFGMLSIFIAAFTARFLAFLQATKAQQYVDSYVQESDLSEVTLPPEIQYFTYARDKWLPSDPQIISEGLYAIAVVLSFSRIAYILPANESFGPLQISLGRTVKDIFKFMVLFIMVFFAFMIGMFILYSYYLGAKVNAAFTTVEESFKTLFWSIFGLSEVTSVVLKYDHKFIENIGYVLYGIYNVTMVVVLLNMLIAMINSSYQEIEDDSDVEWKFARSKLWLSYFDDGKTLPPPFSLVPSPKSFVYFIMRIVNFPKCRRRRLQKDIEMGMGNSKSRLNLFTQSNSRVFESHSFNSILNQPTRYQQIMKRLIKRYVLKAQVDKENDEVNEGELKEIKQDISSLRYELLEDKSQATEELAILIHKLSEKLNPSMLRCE

[2] = target: T1, Short transient receptor potential channel 3; assay: Inhibition of TRPC3 (unknown origin)
[3] = Inhibition of ORAI (unknown origin) assessed as reduction in Ang2-induced NFAT translocation; design: species or system Homo sapiens
ORAI1/STIM1 = ORAI1/STIM1 (Rattus norvegicus, UniProt P84903+Q5M848); assay: Inhibition of ORAI/STIM1 in thapsigargin treated rat RBL2H3 cells assessed as reduction in store-operated calcium entry after 5 mins by fura-2-AM dye based assay; type: cell-based
[4] = target: T2, Short transient receptor potential channel 4 (Homo sapiens, UniProt Q9UBN4); assay: Inhibition of human TRPC4 expressed in HEK293 cells assessed as reduction in englerin A-induced calcium entry incubated for 30 mins by Fluo-4AM dye based fluorescence assay; type: cell-based
T2 sequence (Q9UBN4 whole entry): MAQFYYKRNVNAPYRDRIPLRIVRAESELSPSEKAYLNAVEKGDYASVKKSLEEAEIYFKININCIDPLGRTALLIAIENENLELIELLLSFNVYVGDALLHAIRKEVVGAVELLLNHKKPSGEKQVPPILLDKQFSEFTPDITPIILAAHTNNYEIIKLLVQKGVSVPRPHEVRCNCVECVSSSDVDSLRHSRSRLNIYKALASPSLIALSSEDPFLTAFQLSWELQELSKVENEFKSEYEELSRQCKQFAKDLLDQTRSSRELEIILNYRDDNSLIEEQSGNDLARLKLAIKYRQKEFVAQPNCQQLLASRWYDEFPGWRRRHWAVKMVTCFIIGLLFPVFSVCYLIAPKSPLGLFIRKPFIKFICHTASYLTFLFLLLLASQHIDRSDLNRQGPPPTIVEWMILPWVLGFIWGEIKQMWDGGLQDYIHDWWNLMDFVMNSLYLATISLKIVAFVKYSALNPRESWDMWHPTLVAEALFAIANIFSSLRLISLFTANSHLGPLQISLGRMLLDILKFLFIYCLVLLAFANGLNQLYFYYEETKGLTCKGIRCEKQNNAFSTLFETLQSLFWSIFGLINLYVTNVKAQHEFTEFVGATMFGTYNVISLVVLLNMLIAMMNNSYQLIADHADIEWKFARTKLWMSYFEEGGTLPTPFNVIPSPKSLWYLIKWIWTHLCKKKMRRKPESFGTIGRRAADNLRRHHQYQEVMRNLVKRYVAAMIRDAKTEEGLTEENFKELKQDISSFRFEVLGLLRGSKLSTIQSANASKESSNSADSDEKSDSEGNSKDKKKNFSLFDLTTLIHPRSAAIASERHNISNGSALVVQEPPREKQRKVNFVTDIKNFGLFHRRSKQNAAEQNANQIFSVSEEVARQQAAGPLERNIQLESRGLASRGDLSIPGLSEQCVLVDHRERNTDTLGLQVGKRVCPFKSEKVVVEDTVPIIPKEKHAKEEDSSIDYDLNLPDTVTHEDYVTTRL

TRPC1/TRPC5 = TRPC1/TRPC5 (Homo sapiens, UniProt P48995+Q9UL62); assay: Inhibition of human TRPC5/human TRPC1 expressed in HEK293 cells assessed as reduction in englerin A-induced calcium entry incubated for 30 mins by Fluo-4AM dye based fluorescence assay; type: cell-based
[5] = target: T2, Short transient receptor potential channel 4; assay: Inhibition of human TRPC4 expressed in HEK293 cells assessed as reduction in sphingosine-1-phosphate-induced current at +100 mV by patch clamp assay; type: cell-based
TRPC4/TRPC1 = TRPC4/TRPC1 (Homo sapiens, UniProt P48995+Q9UBN4); assay: Inhibition of human TRPC4/human TRPC1 expressed in HEK293 cells assessed as reduction in englerin A-induced calcium entry incubated for 30 mins by Fluo-4AM dye based fluorescence assay; type: cell-based
[6] = target: T2, Short transient receptor potential channel 4; assay: Inhibition of human TRPC4 expressed in HEK293 cells assessed as reduction in sphingosine-1-phosphate-induced current at -100 mV by patch clamp assay; type: cell-based
AGS [7] = assay: Antitumor activity against human AGS cells xenografted in BALB/c mouse assessed as reduction in tumor growth at 100 mg/kg, ip BID administered for 2 consecutive weeks and measured every 3 days during compound dosing relative to control; type: functional; conditions: 72 h, read-out: TGI
MKN-45 = assay: Antiproliferative activity against human MKN45 cells by MTT assay; type: functional, cell-based
AGS [8] = assay: Antiproliferative activity against human AGS cells by MTT assay; type: functional, cell-based
TRPC6 [9] = assay: Inhibition of TRPC6 expressed in HEK293 cells coexpressing M5 receptor assessed as reduction in TRPC6-mediated calcium influx by fluorescence method
AGS [10] = assay: Antitumor activity against human AGS cells xenografted in BALB/c mouse assessed as reduction in tumor growth at 200 mg/kg, ip BID administered for 2 consecutive weeks and measured every 3 days during compound dosing relative to control; type: functional; conditions: 72 h, read-out: TGI
[11] = Drug concentration in C57BL/6 mouse brain at 1 mg/kg, iv after 2 hrs by liquid chromatography-tandem mass spectrometry; type: ADME, organism-based; conditions: read-out: Drug uptake
[12] = Protein binding in C57BL/6 mouse plasma assessed as unbound fraction by liquid chromatography-tandem mass spectrometry; type: ADME, cell-free
[13] = Drug concentration in C57BL/6 mouse plasma at 1 mg/kg, iv after 2 hrs by liquid chromatography-tandem mass spectrometry; type: ADME, organism-based; conditions: in vivo
[14] = target: T3, Short transient receptor potential channel 5 (Homo sapiens, UniProt Q9UL62); assay: Inhibition of TRPC5 (unknown origin)
T3 sequence (Q9UL62 whole entry): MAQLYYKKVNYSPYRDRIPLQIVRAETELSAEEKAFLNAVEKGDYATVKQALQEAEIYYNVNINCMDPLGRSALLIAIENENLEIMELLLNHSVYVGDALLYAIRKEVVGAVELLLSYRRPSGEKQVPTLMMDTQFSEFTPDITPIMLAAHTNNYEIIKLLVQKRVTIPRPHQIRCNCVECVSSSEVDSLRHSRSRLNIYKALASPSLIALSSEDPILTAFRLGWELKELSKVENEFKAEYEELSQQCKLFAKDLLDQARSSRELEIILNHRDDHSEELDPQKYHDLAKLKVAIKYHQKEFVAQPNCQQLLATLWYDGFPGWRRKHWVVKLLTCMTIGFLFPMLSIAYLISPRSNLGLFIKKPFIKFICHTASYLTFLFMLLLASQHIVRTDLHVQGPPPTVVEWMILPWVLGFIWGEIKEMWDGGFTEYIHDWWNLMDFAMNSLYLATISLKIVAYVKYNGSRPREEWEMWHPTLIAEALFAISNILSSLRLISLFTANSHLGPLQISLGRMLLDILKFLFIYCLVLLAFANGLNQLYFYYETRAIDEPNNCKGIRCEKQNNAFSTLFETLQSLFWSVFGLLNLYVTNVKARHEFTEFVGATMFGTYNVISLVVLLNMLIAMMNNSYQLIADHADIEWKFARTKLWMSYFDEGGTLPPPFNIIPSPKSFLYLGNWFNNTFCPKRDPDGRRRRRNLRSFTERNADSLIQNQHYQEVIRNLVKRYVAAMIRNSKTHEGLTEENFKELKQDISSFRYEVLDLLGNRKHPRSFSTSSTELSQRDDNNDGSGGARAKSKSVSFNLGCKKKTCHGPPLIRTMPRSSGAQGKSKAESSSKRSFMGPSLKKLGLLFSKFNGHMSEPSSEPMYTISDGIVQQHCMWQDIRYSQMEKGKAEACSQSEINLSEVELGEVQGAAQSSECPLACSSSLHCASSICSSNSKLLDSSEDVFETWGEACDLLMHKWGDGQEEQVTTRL

[15] = target: T4, Short transient receptor potential channel 6 (Homo sapiens, UniProt Q9Y210); assay: Inhibition of human TRPC6 expressed in thapsigargin pretreated HEK293 cells assessed as reduction in GPCR-induced calcium entry by fluo-4/AM dye based assay; type: cell-based
T4 sequence (Q9Y210 whole entry): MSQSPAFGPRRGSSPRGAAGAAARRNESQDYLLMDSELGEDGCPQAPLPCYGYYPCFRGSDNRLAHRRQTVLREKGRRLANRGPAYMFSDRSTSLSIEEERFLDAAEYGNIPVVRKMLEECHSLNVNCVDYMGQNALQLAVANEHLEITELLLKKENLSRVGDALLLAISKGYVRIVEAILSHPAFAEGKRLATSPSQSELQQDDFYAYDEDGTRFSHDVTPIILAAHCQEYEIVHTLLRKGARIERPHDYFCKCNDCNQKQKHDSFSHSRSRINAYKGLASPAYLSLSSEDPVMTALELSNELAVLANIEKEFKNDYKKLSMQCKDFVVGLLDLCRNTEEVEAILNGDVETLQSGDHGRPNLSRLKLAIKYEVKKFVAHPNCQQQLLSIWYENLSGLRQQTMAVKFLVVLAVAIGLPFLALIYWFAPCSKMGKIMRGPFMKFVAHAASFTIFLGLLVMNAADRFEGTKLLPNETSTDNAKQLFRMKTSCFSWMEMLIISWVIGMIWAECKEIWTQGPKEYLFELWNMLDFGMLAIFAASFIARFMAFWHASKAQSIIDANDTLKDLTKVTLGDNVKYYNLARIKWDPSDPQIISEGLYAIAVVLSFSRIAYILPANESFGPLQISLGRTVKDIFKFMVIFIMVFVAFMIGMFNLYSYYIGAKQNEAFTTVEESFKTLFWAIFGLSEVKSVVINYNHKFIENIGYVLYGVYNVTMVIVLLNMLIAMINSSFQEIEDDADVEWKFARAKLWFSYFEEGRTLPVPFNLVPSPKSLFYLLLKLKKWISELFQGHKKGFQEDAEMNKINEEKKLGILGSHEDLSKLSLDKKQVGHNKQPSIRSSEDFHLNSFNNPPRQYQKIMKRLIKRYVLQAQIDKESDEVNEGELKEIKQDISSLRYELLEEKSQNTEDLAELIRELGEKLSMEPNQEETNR

TRPC6 [16] = assay: Agonist activity at TRPC6 expressed in HEK293 cells coexpressing M5 receptor assessed as induction of TRPC6-mediated calcium influx by fluorescence method

Chain of ORAI1/STIM1 (P84903 whole entry): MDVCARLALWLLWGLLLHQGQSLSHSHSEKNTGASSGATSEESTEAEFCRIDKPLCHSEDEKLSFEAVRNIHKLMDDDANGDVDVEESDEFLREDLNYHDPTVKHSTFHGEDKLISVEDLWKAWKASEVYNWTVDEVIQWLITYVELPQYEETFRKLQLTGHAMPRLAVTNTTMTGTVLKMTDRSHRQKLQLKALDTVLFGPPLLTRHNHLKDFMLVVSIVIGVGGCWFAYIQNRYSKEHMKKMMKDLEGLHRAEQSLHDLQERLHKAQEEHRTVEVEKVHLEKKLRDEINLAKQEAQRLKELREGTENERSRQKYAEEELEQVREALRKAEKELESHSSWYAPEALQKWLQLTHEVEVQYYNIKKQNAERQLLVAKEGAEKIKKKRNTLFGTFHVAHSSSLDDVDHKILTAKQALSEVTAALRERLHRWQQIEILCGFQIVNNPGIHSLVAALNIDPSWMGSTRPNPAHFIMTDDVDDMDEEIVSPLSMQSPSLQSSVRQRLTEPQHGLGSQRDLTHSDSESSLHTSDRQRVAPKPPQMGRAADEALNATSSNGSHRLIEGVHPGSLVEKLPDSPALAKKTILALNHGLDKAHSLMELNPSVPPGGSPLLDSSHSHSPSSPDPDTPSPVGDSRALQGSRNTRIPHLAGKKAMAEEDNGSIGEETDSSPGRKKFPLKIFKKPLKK
Chain of ORAI1/STIM1 (Q5M848 whole entry): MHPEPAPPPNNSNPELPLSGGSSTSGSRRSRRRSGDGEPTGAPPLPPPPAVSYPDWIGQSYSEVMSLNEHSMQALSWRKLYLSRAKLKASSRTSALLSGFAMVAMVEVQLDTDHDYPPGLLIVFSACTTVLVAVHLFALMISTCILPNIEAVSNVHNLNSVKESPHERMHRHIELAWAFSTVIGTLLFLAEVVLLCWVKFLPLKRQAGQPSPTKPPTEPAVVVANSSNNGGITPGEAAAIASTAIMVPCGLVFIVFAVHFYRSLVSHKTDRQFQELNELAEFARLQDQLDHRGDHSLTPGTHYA
Chain of TRPC1/TRPC5 (P48995 whole entry, one chain of several): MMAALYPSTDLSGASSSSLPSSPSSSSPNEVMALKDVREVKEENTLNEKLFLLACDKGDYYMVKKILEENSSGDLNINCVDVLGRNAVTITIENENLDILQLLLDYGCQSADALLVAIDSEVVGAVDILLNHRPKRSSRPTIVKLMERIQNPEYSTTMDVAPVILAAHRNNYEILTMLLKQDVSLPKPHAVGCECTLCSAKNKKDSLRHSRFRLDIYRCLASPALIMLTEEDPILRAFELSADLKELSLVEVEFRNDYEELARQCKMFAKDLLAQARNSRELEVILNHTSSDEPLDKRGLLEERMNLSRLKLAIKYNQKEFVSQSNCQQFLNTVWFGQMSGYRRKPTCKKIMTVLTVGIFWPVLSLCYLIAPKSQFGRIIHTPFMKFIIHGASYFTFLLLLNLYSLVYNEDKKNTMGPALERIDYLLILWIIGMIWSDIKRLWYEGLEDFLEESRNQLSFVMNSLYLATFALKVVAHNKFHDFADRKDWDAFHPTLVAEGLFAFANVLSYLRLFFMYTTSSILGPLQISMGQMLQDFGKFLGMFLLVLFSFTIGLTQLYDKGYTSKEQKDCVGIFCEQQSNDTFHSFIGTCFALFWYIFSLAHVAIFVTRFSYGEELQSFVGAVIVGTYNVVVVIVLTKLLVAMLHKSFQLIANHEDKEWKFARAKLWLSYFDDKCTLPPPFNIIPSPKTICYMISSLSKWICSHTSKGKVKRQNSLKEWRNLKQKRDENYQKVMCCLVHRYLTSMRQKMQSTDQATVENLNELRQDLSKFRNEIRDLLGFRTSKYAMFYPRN
Chain of TRPC4/TRPC1 (P48995 whole entry, one chain of several): as above

`CCOC(=O)c1cnn(-c2ccc(NC(=O)C(Cl)=C(Cl)Cl)cc2)c1C(F)(F)F` gave an IC50 [1] of 540 nM, an IC50 [2] of 700 nM and an IC50 [3] of 50 nM. It also gave an IC50 (ORAI1/STIM1) of 540 nM.

Compound `Cn1c(=O)n(CCCO)c(=O)c2c1nc(Oc1cccc(OC(F)(F)F)c1)n2Cc1ccc(Cl)cc1` [ZERENCOTREP] has an IC50 [4] of 0.34 nM, an IC50 (TRPC1/TRPC5) of 0.19 nM and an IC50 [5] of 0.03 nM. The IC50 (TRPC4/TRPC1) was 0.033 nM and the IC50 [6] was 0.012 nM.

Work on `CCOC(=O)N1CCC(C)(c2cc(O)n3nc(C)c(-c4ccc(C(F)(F)F)cc4)c3n2)CC1` yielded an inhibition in vivo at 100 mg/kg (AGS [7]) of 38.5%, an IC50 (MKN-45) of 18500 nM and an IC50 (AGS [8]) of 17100 nM. The IC50 (TRPC6 [9]) was 1000 nM and the inhibition in vivo at 200 mg/kg (AGS [10]) was 61.5%.

In the case of `Cn1c(=O)n(CCCO)c(=O)c2c1nc(Oc1cccc(Cl)c1)n2Cc1ccc(Cl)cc1`, the concentration at 2 h [11] is reported as 339 nM, the Fu [12] is reported as 0.4% and the Cp [13] is reported as 299 nmol/kg.

For `Cc1nnsc1C(=O)Nc1ccc(-n2nc(C(F)(F)F)cc2C(F)(F)F)cc1`, the IC50 [1] was 4210 nM, the IC50 (ORAI1/STIM1) was 590 nM and the IC50 [14] was 300 nM.

Work on `C=C[C@](C)(O)CC[C@H]1C(=C)C[C@H](O)[C@H]2C(C)(C)CCC[C@]12C` yielded an IC50 [15] of 1570 nM.

`CCOC(=O)N1CCC(c2cc(O)n3nc(C)c(-c4ccc(F)cc4)c3n2)CC1` gave an EC50 (TRPC6 [16]) of 4700 nM.
